Legend:
[1] = tested on: KHYG-1; assay: drug sensitivity score (viability inhibition); higher = more sensitive; settings: 72 h; IL2 2.5 ng/ml
Procedure: (§1)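 NK-cell leukemia/lymphoma cell lines (3,000 cells/well) were cultured with IL2 2.5 ng/ml in 384-well drug plates (5-8 concentrations over a 10,000-fold range) for 72 h at 37 C; viability was read with CellTiter-Glo. DSS is a normalised area under the dose-response curve; the experiment was repeated twice.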

[2] = tested on: NK-YS; assay: as above; settings: 72 h; IL2 2.5 ng/ml
Procedure: as §1

[3] = tested on: KAI3; assay: as above; settings: 72 h; IL2 2.5 ng/ml
Procedure: as §1

[4] = tested on: NK-92; assay: as above; settings: 72 h; IL2 2.5 ng/ml
Procedure: as §1

[5] = tested on: NKL; assay: as above; settings: 72 h; IL2 2.5 ng/ml
Procedure: as §1

[6] = tested on: SNK6; assay: as above; settings: 72 h; IL2 2.5 ng/ml
Procedure: as §1

[7] = tested on: YT; assay: as above; settings: 72 h; IL2 2.5 ng/ml
Procedure: as §1

[8] = tested on: HEK293-SIE STAT3 WT; assay: drug sensitivity score (inhibition of STAT3 luciferase reporter); higher = stronger inhibition; settings: 6 h; STAT3: WT; IL6 100 ng/ml
Procedure: (§2)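 HEK293 cells with a STAT3-inducible (SIE) luciferase reporter, stably expressing WT STAT3 (IL6 100 ng/ml) or Y640F STAT3 (no IL6), were incubated 6 h with drugs in 384-well plates (5-8 concentrations over a 10,000-fold range); luciferase was read with ONE-Glo. DSS is a normalised area under the dose-response curve; values are the mean of two experiments.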

[9] = tested on: HEK293-SIE STAT3 Y640F; assay: as above; settings: 6 h; IL6 0 ng/ml
Procedure: as §2

Compound | drug sensitivity score [1] [DSS] | drug sensitivity score [2] [DSS] | drug sensitivity score [3] [DSS] | drug sensitivity score [4] [DSS] | drug sensitivity score [5] [DSS] | drug sensitivity score [6] [DSS] | drug sensitivity score [7] [DSS] | drug sensitivity score [8] [DSS] | drug sensitivity score [9] [DSS]
Cc1[nH]c2ccccc2c1CCNCc1ccc(/C=C/C(=O)NO)cc1 [Panobinostat] | 23.1 | 23 | 21.9 | 21.8 | 24.2 | 21.9 | 18.8 | 3.75 | 4.7
COc1cc(Nc2ncc(F)c(Nc3ccc4c(n3)NC(=O)C(C)(C)O4)n2)cc(OC)c1OC [Tamatinib] | 8.19 | 2.57 | 10.5 | 5.27 | 7.75 | 6.98 | 2.87 | 8.6 | 0
Cn1cc(CNCC2CCN(c3ncc(C(=O)NO)cn3)CC2)c2ccccc21 [Quisinostat] | 20.4 | 22 | 16.1 | 13.8 | 22 | 13.3 | 14.2 | 2.3 | 1.9
COc1ccc(-c2ccc3c(N4CCOC[C@@H]4C)nc(N4CCOC[C@@H]4C)nc3n2)cc1CO [AZD8055] | 16.7 | 19.6 | 14.1 | 16.3 | 23.3 | 14.9 | 16.7 | 20.2 | 18.6
N#C/C(=C\c1ccc(O)c(O)c1)C(=O)NCc1ccccc1 [AG490] | 8.13 | 13.3 | 8.31 | 9.21 | 10.3 | 10.2 | 8.84 | 1.18 | 1.9
C[C@H]1C[C@@H]2[C@H]([C@@H](O)C[C@@]3(C)[C@H]2CC[C@]3(O)C(=O)CO)[C@@]2(C)C=CC(=O)C=C12 [Methylprednisolone] | 10.5 | 3.19 | 1.27 | 0 | 16 | 0.065 | 8.81 | 0 | 0.4
C[C@@H]1C=C2C(=O)O[C@@H]3CC[C@H](C1)[C@]23O [Galiellalactone] | 4.09 | 3.55 | 5 | 3.98 | 1.09 | 6.92 | 1.84 | 0 | 0
CC(C)NC[C@@H](C(=O)N1CCN(c2ncnc3c2[C@H](C)C[C@H]3O)CC1)c1ccc(Cl)cc1 [GDC-0068] | 3.15 | 1.41 | 0 | 0.75 | 1.24 | 1.47 | 0.319 | 4.1 | 0.85
CC[C@H](Nc1ncnc2[nH]cnc12)c1nc2cccc(F)c2c(=O)n1-c1ccccc1 [Idelalisib] | 0.4 | 0.598 | 1.38 | 9.76 | 1.96 | 5.48 | 1.42 | 0 | 3.9
O=C(Cc1ccc(-c2ccc(OCCN3CCOCC3)cc2)cn1)NCc1ccccc1 [KX2-391] | 31.6 | 28.1 | 22.4 | 32.4 | 31.2 | 31.7 | 31.7 | 0 | 0
COc1cc(Nc2ncc(F)c(Nc3ccc4c(n3)N(COP(=O)(O)O)C(=O)C(C)(C)O4)n2)cc(OC)c1OC [Fostamatinib] | 1.22 | 1.04 | 7.41 | 3.43 | 4.15 | 3.04 | 2.81 | 9.75 | 2.93
C[C@@]1(C(=O)Nc2ccc(F)nc2)CCCN1c1nc(Nc2cc(C3CC3)n[nH]2)c2cccn2n1 | 7.86 | 11.1 | 4.45 | 5.6 | 2.75 | 10.9 | 5.74 | 1.95 | 8.23
COc1c(C)cnc(Cn2cnc3c(Cl)nc(N)nc32)c1C [BIIB021] | 26.4 | 24.7 | 26 | 23 | 21.9 | 25.4 | 22.2 | 15.3 | 9.85
CN1CCN(CCOc2cc(OC3CCOCC3)c3c(Nc4c(Cl)ccc5c4OCO5)ncnc3c2)CC1 [Saracatinib] | 2.88 | 2.03 | 2.15 | 3.28 | 1.25 | 0.135 | 2.46 | 0 | 1.9
CC(C)(C)c1cnc(CSc2cnc(NC(=O)C3CCNCC3)s2)o1 [SNS-032] | 20.5 | 30.3 | 21.1 | 19.2 | 29.4 | 10.5 | 26.1 | 21.8 | 18.9
O=P1(N(CCCl)CCCl)NCCCO1 (stereo unspecified) [Cyclophosphamide] | 0 | 0.435 | 1.89 | 0 | 0 | 0.54 | 0 | 2.6 | 1.17
Cc1ccc(C(=O)Nc2ccc(CN3CCN(C)CC3)c(C(F)(F)F)c2)cc1C#Cc1cnc2cccnn12 [Ponatinib] | 3.2 | 2.28 | 3.2 | 1.39 | 4.93 | 0 | 4.26 | 2.95 | 2.8
CO[C@@H](C(=O)N1Cc2[nH]nc(NC(=O)c3ccc(N4CCN(C)CC4)cc3)c2C1)c1ccccc1 [Danusertib] | 13 | 12.9 | 7.82 | 6.91 | 5.43 | 14.4 | 6.55 | 6.8 | 5.2
CN1CC[C@H](c2c(O)cc(O)c3c(=O)cc(-c4ccccc4Cl)oc23)[C@H](O)C1 [Alvocidib] | 21.8 | 22.5 | 24.1 | 22.6 | 21.4 | 13.2 | 23 | 29.5 | 26.5
